Data from ChEMBL document CHEMBL1127136, “Vinylogous vs arylogous isocephems” (1993).
Converted amounts (≈) assume the structure as drawn.

Legend:
Staphylococcus sp. = test: Antibacterial activity against staphylococci was determined.; assay type: functional
Enterobacteriaceae = test: Antibacterial activity against enterobacteriaceae was determined.; assay type: functional

CO/N=C(/C(=O)N[C@@H]1C(=O)N2C(C(=O)O)=C(/C=C/C=C/CSc3nnnn3C)SC[C@H]12)c1csc(N)n1
MIC (Staphylococcus sp.): 5 µg/mL (≈ 8.87 µM) | MIC (Enterobacteriaceae): 1.5 µg/mL (≈ 2.66 µM)

CO/N=C(/C(=O)N[C@@H]1C(=O)N2C(C(=O)[O-])=C(/C=C/c3ccc(C[n+]4ccccc4)o3)SC[C@H]12)c1csc(N)n1
MIC (Staphylococcus sp.): 6.3 µg/mL (≈ 11.1 µM) | MIC (Enterobacteriaceae): 5.9 µg/mL (≈ 10.4 µM)

CO/N=C(/C(=O)N[C@@H]1C(=O)N2C(C(=O)[O-])=C(C[n+]3ccccc3)SC[C@H]12)c1csc(N)n1
MIC (Staphylococcus sp.): 2.5 µg/mL (≈ 5.27 µM) | MIC (Enterobacteriaceae): 0.2 µg/mL (≈ 0.421 µM)

CO/N=C(/C(=O)N[C@@H]1C(=O)N2C(C(=O)[O-])=C(/C=C/c3ccc(C[n+]4ccccc4)s3)SC[C@H]12)c1csc(N)n1
MIC (Staphylococcus sp.): 3.1 µg/mL (≈ 5.32 µM) | MIC (Enterobacteriaceae): 3.8 µg/mL (≈ 6.52 µM)

CO/N=C(/C(=O)N[C@@H]1C(=O)N2C(C(=O)[O-])=C(/C=C/c3ccccc3C[n+]3ccccc3)SC[C@H]12)c1csc(N)n1
MIC (Staphylococcus sp.): 0.95 µg/mL (≈ 1.65 µM) | MIC (Enterobacteriaceae): 7.3 µg/mL (≈ 12.7 µM)

CO/N=C(/C(=O)N[C@@H]1C(=O)N2C(C(=O)[O-])=C(/C=C/c3cccc(C[n+]4ccccc4)c3)SC[C@H]12)c1csc(N)n1
MIC (Staphylococcus sp.): 2.5 µg/mL (≈ 4.34 µM) | MIC (Enterobacteriaceae): 8 µg/mL (≈ 13.9 µM)

CO/N=C(/C(=O)N[C@@H]1C(=O)N2C(C(=O)[O-])=C(/C=C/c3ccc(C[n+]4ccccc4)cc3)SC[C@H]12)c1csc(N)n1
MIC (Staphylococcus sp.): 6.3 µg/mL (≈ 10.9 µM) | MIC (Enterobacteriaceae): 3.9 µg/mL (≈ 6.76 µM)

CO/N=C(/C(=O)N[C@@H]1C(=O)N2C(C(=O)[O-])=C(/C=C/C#CC[n+]3ccccc3)SC[C@H]12)c1csc(N)n1
MIC (Staphylococcus sp.): 5 µg/mL (≈ 9.53 µM) | MIC (Enterobacteriaceae): 0.4 µg/mL (≈ 0.763 µM)

CO/N=C(/C(=O)N[C@@H]1C(=O)N2C(C(=O)[O-])=C(C[n+]3cccc4ccsc43)SC[C@H]12)c1csc(N)n1
MIC (Staphylococcus sp.): 0.76 µg/mL (≈ 1.43 µM) | MIC (Enterobacteriaceae): 0.12 µg/mL (≈ 0.226 µM)

CO/N=C(/C(=O)N[C@@H]1C(=O)N2C(C(=O)[O-])=C(/C=C/C[N+](C)(C)C)SC[C@H]12)c1csc(N)n1
MIC (Staphylococcus sp.): 1.2 µg/mL (≈ 2.5 µM) | MIC (Enterobacteriaceae): 0.19 µg/mL (≈ 0.395 µM)

CO/N=C(/C(=O)N[C@@H]1C(=O)N2C(C(=O)[O-])=C(/C=C\C[N+](C)(C)C)SC[C@H]12)c1csc(N)n1
MIC (Staphylococcus sp.): 10 µg/mL (≈ 20.8 µM) | MIC (Enterobacteriaceae): 1 µg/mL (≈ 2.08 µM)

CO/N=C(/C(=O)N[C@@H]1C(=O)N2C(C(=O)[O-])=C(/C=C/C[n+]3cccc4ccsc43)SC[C@H]12)c1csc(N)n1
MIC (Staphylococcus sp.): 0.12 µg/mL (≈ 0.216 µM) | MIC (Enterobacteriaceae): 0.03 µg/mL (≈ 0.0539 µM)

CO/N=C(/C(=O)N[C@@H]1C(=O)N2C(C(=O)[O-])=C(C[N+](C)(C)C)SC[C@H]12)c1csc(N)n1
MIC (Staphylococcus sp.): 10 µg/mL (≈ 22 µM) | MIC (Enterobacteriaceae): 0.28 µg/mL (≈ 0.616 µM)

CO/N=C(/C(=O)N[C@@H]1C(=O)N2C(C(=O)O)=C(/C=C/C=C/C[n+]3cccc4ccsc43)SC[C@H]12)c1csc(N)n1.O=C([O-])C(F)(F)F
MIC (Staphylococcus sp.): 0.38 µg/mL | MIC (Enterobacteriaceae): 0.12 µg/mL

CO/N=C(/C(=O)N[C@@H]1C(=O)N2C(C(=O)[O-])=C(/C=C/c3cc[n+](C)cc3)SC[C@H]12)c1csc(N)n1
MIC (Staphylococcus sp.): 0.8 µg/mL (≈ 1.6 µM) | MIC (Enterobacteriaceae): 0.3 µg/mL (≈ 0.599 µM)

CO/N=C(/C(=O)N[C@@H]1C(=O)N2C(C(=O)O)=C(/C=C/CSc3nnnn3C)SC[C@H]12)c1csc(N)n1
MIC (Staphylococcus sp.): 2.5 µg/mL (≈ 4.65 µM) | MIC (Enterobacteriaceae): 0.14 µg/mL (≈ 0.26 µM)

CO/N=C(/C(=O)N[C@@H]1C(=O)N2C(C(=O)O)=C(CSc3nnnn3C)SC[C@H]12)c1csc(N)n1
MIC (Staphylococcus sp.): 15.9 µg/mL (≈ 31.1 µM) | MIC (Enterobacteriaceae): 0.4 µg/mL (≈ 0.782 µM)
